Where two headings read alike, the source gives them in different places.
Experiments:
Assay type in all cases: cell-based
[1] = system: Resistant Cell Line (HT29, HTC15, CoLo205, Lovo); experiment: Average oxaliplatin AUC over resistant colorectal cancer cell lines
Description: (§1) Four hours after the medium change, the cells were treated with oxaliplatin, 5-FU, Irinotecan, and folinic acid. Five days after drug treatment, intracellular ATP expression was determined using the ATPlite assay kit (PerkinElmer), and the data were expressed in terms of cell viability, IC50, and AUC.
(§2) As the standard for confirming that cells are sensitive to the drug, the response of the cells to the drug was assumed to be 100%, and the luminescence value of surviving cells after drug treatment was analyzed and compared with the quantified drug response value.
(§3) Based on the assumption that the factor that increases the resistance of the organoids to oxaliplatin is an activator or inhibitor that changes the phenotype, the organoids prepared by excluding some or all of activators and inhibitors as shown in Table 4 below were treated with oxaliplatin.
In order to confirm reduced resistance to oxaliplatin, ECT116, RKO, SW620, and LS147T cell lines, which are highly sensitive to oxaliplatin, and HT29, HTC15, CoLo205, and Lovo cell lines, which are low sensitive to oxaliplatin, were used.
When the above results were combined with the results shown by cell lines with high sensitivity to oxaliplatin and cell lines with low sensitivity to oxaliplatin, the result data shown in FIGS. 23 and 24 and Tables 5 to 7 below were obtained.

CoLo205 cells = experiment: ATPlite cell viability after oxaliplatin, CoLo205 cells in organoid culture media; details: FIG. 19
Description: (§4) Advanced DMEM/F12+++ (hereinafter referred to as “Ad/DF+++”) was used to produce colorectal cancer organoids. Ad/DF+++ was refrigerated at 4° C. until use, and was used in a cold state during cell washing. Ad/DF+++ medium containing the reagents shown in Table 1 below along with Ad/DF 1× (Gibco) was prepared.
After preparing the Ad/DF+++ medium containing the above reagents, an appropriate amount of Matrigel (Corning #356231) was added so that the ratio between Matrigel and cells suspended in the Ad/DF+++ medium was 7:3. Then, the cells were plated on low attachment well plates at an appropriate density. The density and the type and number of well plates were determined according to the characteristics of each cell type. […]
If the organoids were expanded as needed for the experiment, the medium was carefully removed, taking care not to touch the Matrigel. […] After suspending the pellet in Ad/DF+++, the cells were counted and diluted with medium according to the required number of cells. […]
as §1, with “AUC. […]” for “AUC.”

HCT116 cells = experiment: ATPlite cell viability after drug treatment, HCT116 cells in cell-line or organoid culture media; parameters: AUC 1st / AUC 2nd / AUC 3rd / AUC Average: unit not given here
Description: as §4
After preparing the Ad/DF+++ medium containing the above reagents, an appropriate amount of Matrigel (Corning #356231) was added so that the ratio between Matrigel and cells suspended in the Ad/DF+++ medium was 7:3. Then, the cells were plated on low attachment well plates at an appropriate density. The density and the type and number of well plates were determined according to the characteristics of each cell type. The medium was prepared according to the composition shown in Table 2 below, and the cells were cultured (expanded) until the required level was reached while the medium was replaced every 3 to 4 days.
If the organoids were expanded as needed for the experiment, the medium was carefully removed, taking care not to touch the Matrigel. The cells were separated from the Matrigel by pipetting about 20 times with 1 ml of cold Ad/DF+++. The cells in 1 to 4 wells per 6-well plate were collected in one 50 ml tube. If cells are collected from more than 4 wells into one tube, the Metrigel may not be washed properly. For this reason, the cells were placed in several tubes. Thereafter, Ad/DF+++ was poured to 20 to 50 ml of each tube, followed by centrifugation at 400 g for 3 minutes at 4° C. The cells were dissociated with 1 to 2 mL of TrypLE™ Express Enzyme (Gibco, 1264-013), transferred to low-attachment 24 well plates, and then treated with 10 μM of Y-27632. Next, the cells were cultured in a CO2 incubator for 5 minutes at 37° C. After pipetting about 20 times, whether the cells would be dissociated into single cells was checked by microscopic observation. If the cells were not dissociated into single cells, the culture under CO2 and pipetting processes were repeated. After the single cells were transferred into 15-ml tubes, Ad/DF+++ was filled to 10 to 15 ml of each tube, followed by centrifugation at 400 g at 4° C. for 3 minutes. After suspending the pellet in Ad/DF+++, the cells were counted and diluted with medium according to the required number of cells.
12 hours after seeding in Experimental Example 1-2 above, the medium was changed with the medium shown in Table 3 below, followed by culturing to produce organoids.
as §1, §2, §3
In order to identify the factors that reduce the resistance to oxaliplatin of the Ex2 organoid, activators or inhibitors that change the phenotype were added one by one to the Ex2 organoid composition, thus producing organoids as shown in Table 8 below. Then, it was checked whether the produced organoids had increased resistance to oxaliplatin.

## O=C1[O][Pt]2([NH][C@@H]3CCCC[C@H]3[NH]2)[O]C1=O [oxaliplatin]
[1]; average over resistant cell lines, Ex1 medium
  EX1_AUC: 420.02
[1]; average over resistant cell lines, Ex2 medium
  EX2_AUC: 420.86
[1]; average over resistant cell lines, normal cell-line culture
  normal_AUC: 391.80
[1]; cell lines with low sensitivity, FIG. 24
  sensitivity to oxaliplatin, Ex2 compared with Ex1: no difference in sensitivity to oxaliplatin between Ex1 and Ex2
[1]; resistant cell lines
  EX1 − EX2 (AUC difference): −0.85
CoLo205 cells
  AUC values of Ex2 to Ex4 compared with Ex1: higher than that of Ex1
HCT116 cells; HCT116, FIG. 3
  AUC value, Ex2 compared with Ex1: significantly lower AUC values than those of Ex1
  AUC value, Ex3 and Ex4 compared with Ex1: lower AUC values than Ex1
HCT116 cells; HCT116, FIG. 4
  IC50 value, Ex2 compared with Ex1: similarly lowered in Ex2 compared to Ex1
HCT116 cells; HCT116, McCoys control, Ex1, Ex2, FIG. 5
  cell viability versus oxaliplatin concentration: similarly lowered in the control (McCoys) HCT116 cells and the cells cultured under the organoid culture conditions of Ex2
HCT116 cells; HCT116 cell line in McCoys (control), 1st
  AUC 1st: 312.3
HCT116 cells; HCT116 cell line in McCoys (control), 1st, read-out: IC50 (μM) 1st
  IC50: 24.1 µM
HCT116 cells; HCT116 cell line in McCoys (control), 2nd
  AUC 2nd: 278.4
HCT116 cells; HCT116 cell line in McCoys (control), 2nd, read-out: IC50 (μM) 2nd
  IC50: 10.7 µM
HCT116 cells; HCT116 cell line in McCoys (control), 3rd
  AUC 3rd: 307.3
HCT116 cells; HCT116 cell line in McCoys (control), 3rd, read-out: IC50 (μM) 3rd
  IC50: 28.8 µM
HCT116 cells; HCT116 cell line in McCoys (control), average
  AUC Average: 299.3
HCT116 cells; HCT116 cell line in McCoys (control), average, read-out: IC50 (μM) Average
  IC50: 21.2 µM
HCT116 cells; HCT116 in Ex1 (all inhibitors and activators), 1st
  AUC 1st: 379.7
HCT116 cells; HCT116 in Ex1 (all inhibitors and activators), 1st, read-out: IC50 (μM) 1st
  IC50: 133 µM
HCT116 cells; HCT116 in Ex1, 2nd
  AUC 2nd: 379.9
HCT116 cells; HCT116 in Ex1, 2nd, read-out: IC50 (μM) 2nd
  IC50: 98 µM
HCT116 cells; HCT116 in Ex1, 3rd
  AUC 3rd: 390.0
HCT116 cells; HCT116 in Ex1, 3rd, read-out: IC50 (μM) 3rd
  IC50: 167 µM
HCT116 cells; HCT116 in Ex1, average
  AUC Average: 383.2
HCT116 cells; HCT116 in Ex1, average, read-out: IC50 (μM) Average
  IC50: 133 µM
HCT116 cells; HCT116 in Ex2 (no inhibitors, no activators), 1st
  AUC 1st: 319.8
HCT116 cells; HCT116 in Ex2 (no inhibitors, no activators), 1st, read-out: IC50 (μM) 1st
  IC50: 27.8 µM
HCT116 cells; HCT116 in Ex2-1 (Ex2 + A83-01 500 nM), 1st
  AUC 1st: 328.0
HCT116 cells; HCT116 in Ex2-1 (Ex2 + A83-01 500 nM), 1st, read-out: IC50 (μM) 1st
  IC50: 46 µM
HCT116 cells; HCT116 in Ex2-1, 2nd
  AUC 2nd: 341.6
HCT116 cells; HCT116 in Ex2-1, 2nd, read-out: IC50 (μM) 2nd
  IC50: 52.2 µM
HCT116 cells; HCT116 in Ex2-1, 3rd
  AUC 3rd: 342.0
HCT116 cells; HCT116 in Ex2-1, 3rd, read-out: IC50 (μM) 3rd
  IC50: 81.8 µM
HCT116 cells; HCT116 in Ex2-1, average
  AUC Average: 337.2
HCT116 cells; HCT116 in Ex2-1, average, read-out: IC50 (μM) Average
  IC50: 60 µM
HCT116 cells; HCT116 in Ex2-2 (Ex2 + Y-27632 10 μM), 1st
  AUC 1st: 284.9
HCT116 cells; HCT116 in Ex2-2 (Ex2 + Y-27632 10 μM), 1st, read-out: IC50 (μM) 1st
  IC50: 13 µM
HCT116 cells; HCT116 in Ex2-2, 2nd
  AUC 2nd: 320.5
HCT116 cells; HCT116 in Ex2-2, 2nd, read-out: IC50 (μM) 2nd
  IC50: 38.4 µM
HCT116 cells; HCT116 in Ex2-2, 3rd
  AUC 3rd: 301.0
HCT116 cells; HCT116 in Ex2-2, 3rd, read-out: IC50 (μM) 3rd
  IC50: 16 µM

Source: patent US20250102494A1, “COMPOSITION FOR PREDICTING OXALIPLATIN DRUG EFFICACY, AND USE THEREOF” (SAMSUNG LIFE PUBLIC WELFARE FOUNDATION, priority 2022, published 2025)
